For seven molecules, IC50, DC50 and Dmax results are on record in patent US20260167622A1, “PAN-KRAS DEGRADING AGENT, AND PREPARATION METHOD THEREFOR AND USE THEREOF” (LEADINGTAC PHARMACEUTICAL (SHAOXING) CO., LTD., priority 2022, published 2026).

A word on the IC50: it is the concentration at which inhibition is half-maximal. Higher therefore signals weaker potency. By DC50 is commonly meant the concentration giving 50% degradation. The term Dmax denotes the largest share of the target that was removed.

Assay type in all cases: cell-based
In assay [1] the test system is KRAS WT human gastric cancer cell MKN1. In words: 3D cell proliferation inhibition assay, MKN1. As to conditions: MKN-1, 168 h, 3D culture, 7 days, CTG. A digest of the protocol: (§1)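 Cells were seeded in low-adsorption 96-well plates at 5×10^2 cells/well (MKN1 at 1×10^3) with compounds at final 10000-0.026 nM, 0.2% DMSO, and grown 7 days at 37° C. CTG luminescence gave inhibition relative to DMSO and medium-only controls, and IC50 came from a log-concentration curve fit.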

Assay [2] deals with KRAS G12D mutant human lung cancer cell A427. In words: 3D cell proliferation inhibition assay, A427. As to conditions: A-427, 168 h, 3D culture, 7 days, CTG. The text has this: (§2) Test Example 6: 3D Cell Proliferation Inhibition Assay
(§3) The inhibitory effects of the compounds on 3D cell proliferation were investigated on KRAS G12C mutant human non-small cell lung cancer cell NCI-H358, KRAS G12D mutant human lung cancer cell A427, KRAS G12D mutant human gastric cancer cell AGS, KRAS G12D mutant human metastatic pancreatic cancer cell AsPc-1, KRAS G12V mutant human lung squamous carcinoma cell SW900, KRAS G12V mutant human colorectal cancer cell SW620, KRAS G13D mutant human colorectal cancer epithelial cell DLD-1, and KRAS WT human gastric cancer cell MKN1. The specific procedures were as follows:
(§4) 10 μL of each compound solution diluted in a gradient was added to corresponding wells of a 96-well low-adsorption microplate (PerkinElmer), so that the final concentrations of the test compounds in the reaction system were in a range of 10000-0.026 nM. The final concentration of DMSO was 0.2%. Then 90 µL of cells were correspondingly seeded into each well to achieve a cell density of 5×10^2 cells/well (the cell density of SW900 was 5×10^3 cells/well, and the cell density of MKN1 was 1×10^3 cells/well). In addition to test wells for the test compounds, both a DMSO control well and a medium control well were set, with the DMSO control well containing DMSO and cells and the medium well containing only a medium. After the sample loading, the 96-well low-adsorption microplate was incubated in an incubator at 37° C. with […] for 7 days. After 7 days, the microplate was taken out, and 100 μL of CTG reagent (Promega) was added to each well. The plate was incubated at room temperature for 60 m and read on a microplate reader EnVision by the chemiluminescence program. The inhibition rates of the compounds at each concentration were calculated using the formula for the percentage inhibition of cell proliferation: inhibition rate 00=(mean value of DMSO control group−single concentration reading value of compound)/(mean value of DMSO control group−mean value of medium control group)×100. Then non-linear curve fillings for logarithmic concentration-inhibition rate were performed by GraphPad Prism 8, and the IC50 values of the compounds were obtained (Table 6).

Assay [3] has as its system KRAS G12C mutant human non-small cell lung cancer cell NCI-H358. In words: 3D cell proliferation inhibition assay, NCI-H358. As to conditions: NCI-H358, 168 h, 3D culture, 7 days, CTG. In a few lines: as §1
For assay [4], the target named is T1, KRAS G12V protein in SW900 cells (Homo sapiens, UniProt P01116, G12V).
T1 construct: endogenous in cells; host or cells: SW900
In words: KRAS degradation assay (Western Blot) in SW900 cells. As to conditions: 24 h. A digest of the protocol: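 Western blot read-out: KRAS band gray value divided by β-actin, compared with DMSO control to give degradation rate. DC50 and Dmax came from log concentration–response fits after 24 h compound exposure (0.03–3000 nM final, 0.25% DMSO) at 37 °C, 5% CO2.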
(Immunoblotting shows a protein as a band on a membrane.)

In assay [5] the test system is KRAS G12V mutant human colorectal cancer cell SW620. In words: 3D cell proliferation inhibition assay, SW620. As to conditions: SW-620, 168 h, 3D culture, 7 days, CTG. A digest of the protocol:
as §1

For assay [6], the system named is KRAS G12D mutant human metastatic pancreatic cancer cell AsPc-1. In words: 3D cell proliferation inhibition assay, AsPc-1. As to conditions: ASPC1, 168 h, 3D culture, 7 days, CTG. A digest of the protocol: as §1
Assay [7] concerns KRAS G12V mutant human lung squamous carcinoma cell SW900. In words: 3D cell proliferation inhibition assay, SW900. As to conditions: SW900, 168 h, 3D culture, 7 days, CTG.
For assay [8], the system named is KRAS G12D mutant human gastric cancer cell AGS. In words: 3D cell proliferation inhibition assay, AGS. As to conditions: 168 h, 3D culture, 7 days, CTG.
Text: as §2, §3, §4

Assay [9] concerns KRAS G13D mutant human colorectal cancer epithelial cell DLD-1. In words: 3D cell proliferation inhibition assay, DLD-1. As to conditions: DLD-1, 168 h, 3D culture, 7 days, CTG. A digest of the protocol: as §1

T1 sequence (P01116 1-188 isoform P01116-2 G12V): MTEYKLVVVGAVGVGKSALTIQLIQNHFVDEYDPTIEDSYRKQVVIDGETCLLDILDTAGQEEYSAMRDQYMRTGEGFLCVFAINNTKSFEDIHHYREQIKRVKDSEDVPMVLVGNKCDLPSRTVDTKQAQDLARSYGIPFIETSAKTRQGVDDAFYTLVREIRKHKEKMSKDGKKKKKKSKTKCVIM

Take `CCc1cccc2cc(O)cc(-c3ccc4c(N5CCC[C@@](C)(O)C5)nc(OCC5(CN6CCN(CC7CCC8(CC7)CCN(C(=O)c7ccc(Cl)c(N9CCC(=O)NC9=O)c7)CC8)CC6)CC5)nc4c3F)c12` [Example 12, (R)-1-(2-chloro-5-(9-((4-((1-(((7-(8-ethyl-3-hydroxynaphthalen-1-yl)-8-fluoro-4-(3-hydroxy-3-methylpiperidin-1-yl)quinazolin-2-yl)oxy)methyl)cyclopropyl)methyl)piperazin-1-yl)methyl)-3-azaspiro[5.5]undecane-3-carbonyl)phenyl)dihydropyrimidine-2,4(1H,3H)-dione]: the IC50 was at most 50 nM in [1]; 100 to 500 nM in [2]; at most 50 nM in [3]; 15.3 nM in [5]; 100 to 500 nM in assay [6]; at most 50 nM in assay [7]. The IC50 in [8] was at most 50 nM. Besides, the DC50 in [4] was at most 50 nM. The same molecule came in with a Dmax in [4] of 80 to 100%.

Take `C#Cc1c(F)ccc2cc(O)cc(-c3ccc4c(N5CCC[C@@](C)(O)C5)nc(OCC5(CN6CCN(CC7CCC8(CC7)CCN(C(=O)c7ccc(OC)c(N9CCC(=O)NC9=O)c7)CC8)CC6)CC5)nc4c3F)c12` [Example 21, (R)-1-(5-(9-((4-((1-(((7-(8-ethynyl-7-fluoro-3-hydroxynaphthalen-1-yl)-8-fluoro-4-(3-hydroxy-3-methylpiperidin-1-yl)quinazolin-2-yl)oxy)methyl)cyclopropyl)methyl)piperazin-1-yl)methyl)-3-azaspiro[5.5]undecane-3-carbonyl)-2-methoxyphenyl)dihydropyrimidine-2,4(1H,3H)-dione]: the IC50 is at most 50 nM in assay [1]; 50 to 100 nM in [2]; 100 to 500 nM in [3]; 5.54 nM in [5]; at most 50 nM in assay [6]; at most 50 nM in assay [7]. In assay [8], the IC50 is at most 50 nM. In addition, the DC50 in assay [4] was at most 50 nM. The Dmax in assay [4] lay within 80 to 100%.

For the molecule `CCc1cccc2cc(O)cc(-c3ncc4c(N5CCC[C@@](C)(O)C5)nc(OCC5(CN6CCN(CC7CCC8(CC7)CCN(C(=O)c7ccc(F)c(N9CCC(=O)NC9=O)c7)CC8)CC6)CC5)nc4c3F)c12` [Example 28, (R)-1-(5-(9-((4-((1-(((7-(8-ethyl-3-hydroxynaphthalen-1-yl)-8-fluoro-4-(3-hydroxy-3-methylpiperidin-1-yl)pyrido[4,3-d]pyrimidin-2-yl)oxy)methyl)cyclopropyl)methyl)piperazin-1-yl)methyl)-3-azaspiro[5.5]undecane-3-carbonyl)-2-fluorophenyl)dihydropyrimidine-2,4(1H,3H)-dione], the half-maximal inhibitory concentration (IC50) in assay [1] was at most 50 nM; in assay [2], 100 to 500 nM; in assay [3], at most 50 nM; in [9] it was at most 50 nM; in assay [6] it was at most 50 nM; in [7], at most 50 nM. The molecule further came in with an IC50 in [8] of at most 50 nM. In assay [4], the DC50 was at most 50 nM. The Dmax in assay [4] lay within 80 to 100%.

In the case of `CCc1c(F)ccc2cc(O)cc(-c3ncc4c(N5CCC[C@@](C)(O)C5)nc(OCC5(CN6CCC(CCOCC7CCN(C(=O)c8ccc(Cl)c(N9CCC(=O)NC9=O)c8)CC7)CC6)CC5)nc4c3F)c12` [Example 5, (R)-1-(2-chloro-5-(4-((2-(1-((1-(((7-(8-ethyl-7-fluoro-3-hydroxynaphthalen-1-yl)-8-fluoro-4-(3-hydroxy-3-methylpiperidin-1-yl)pyrido[4,3-d]pyrimidin-2-yl)oxy)methyl)cyclopropyl)methyl)piperidin-4-yl)ethoxy)methyl)piperidine-1-carbonyl)phenyl)dihydropyrimidine-2,4(1H,3H)-dione], the IC50 in assay [1] is at most 50 nM; in assay [2], at most 50 nM; in assay [3] it was at most 50 nM; in [9], at most 50 nM; in assay [6], at most 50 nM; in assay [7], 50 to 100 nM. This molecule also returned an IC50 in assay [8] of at most 50 nM. The molecule also yielded a 50% degradation concentration (DC50) in assay [4] of at most 50 nM. This molecule came in with a Dmax in assay [4] of 80 to 100%.

For `C#Cc1c(F)ccc2cc(O)cc(-c3ncc4c(N5CCC[C@@H](O)C5)nc(OCC5(CN6CCN(CC7CCC8(CC7)CCN(C(=O)c7ccc(C)c(N9CCC(=O)NC9=O)c7)CC8)CC6)CC5)nc4c3F)c12` [Example 45, (R)-1-(5-(9-((4-((1-(((7-(8-ethynyl-7-fluoro-3-hydroxynaphthalen-1-yl)-8-fluoro-4-(3-hydroxypiperidin-1-yl)pyrido[4,3-d]pyrimidin-2-yl)oxy)methyl)cyclopropyl)methyl)piperazin-1-yl)methyl)-3-azaspiro[5.5]undecane-3-carbonyl)-2-methylphenyl)dihydropyrimidine-2,4(1H,3H)-dione], the IC50 in [1] was 50 to 100 nM; in [2] it was 50 to 100 nM; in assay [3], 100 to 500 nM; in assay [9], at most 50 nM; in assay [6], at most 50 nM; in [7], at most 50 nM. This molecule yielded an IC50 in assay [8] of at most 50 nM. The DC50 in assay [4] is at most 50 nM. The same molecule returned a maximal degradation (Dmax) in assay [4] of 80 to 100%.

Consider `C#Cc1c(F)ccc2cc(O)cc(-c3ncc4c(N5CCC[C@@](C)(O)C5)nc(OCC5(CN6CCC(CCOCC7CCN(C(=O)c8ccc(Cl)c(N9CCC(=O)NC9=O)c8)CC7)CC6)CC5)nc4c3F)c12` [Example 8, (R)-1-(2-chloro-5-(4-((2-(1-((1-(((7-(8-ethynyl-7-fluoro-3-hydroxynaphthalen-1-yl)-8-fluoro-4-(3-hydroxy-3-methylpiperidin-1-yl)pyrido[4,3-d]pyrimidin-2-yl)oxy)methyl)cyclopropyl)methyl)piperidin-4-yl)ethoxy)methyl)piperidine-1-carbonyl)phenyl)dihydropyrimidine-2,4(1H,3H)-dione], for which the concentration for half-maximal inhibition (IC50) in assay [1] is at most 50 nM; in assay [2] it was 50 to 100 nM; in assay [3], at most 50 nM; in assay [9] it was at most 50 nM; in assay [6], at most 50 nM; in assay [7], at most 50 nM. Also, in assay [8], the IC50 is at most 50 nM. In assay [4], the 50% degradation concentration (DC50) was at most 50 nM. Further, the Dmax in assay [4] was 80 to 100%.

Consider `C#Cc1c(F)ccc2cc(O)cc(-c3ncc4c(N5CCC[C@@](C)(O)C5)nc(OCC5(CN6CCC(COCCC7CCN(C(=O)c8ccc(Cl)c(N9CCC(=O)NC9=O)c8)CC7)CC6)CC5)nc4c3F)c12` [Example 10, (R)-1-(2-chloro-5-(4-(2-((1-((1-(((7-(8-ethynyl-7-fluoro-3-hydroxynaphthalen-1-yl)-8-fluoro-4-(3-hydroxy-3-methylpiperidin-1-yl)pyrido[4,3-d]pyrimidin-2-yl)oxy)methyl)cyclopropyl)methyl)piperidin-4-yl)methoxy)ethyl)piperidine-1-carbonyl)phenyl)dihydropyrimidine-2,4(1H,3H)-dione], for which the half-inhibitory concentration (IC50) in [1] is at most 50 nM; in assay [2], 50 to 100 nM; in [3], at most 50 nM; in [9], 50 to 100 nM; in assay [6], 50 to 100 nM; in assay [7], at most 50 nM. The molecule also displayed an IC50 in [8] of at most 50 nM. In assay [4], the 50% degradation concentration (DC50) was at most 50 nM. Further, in assay [4], the Dmax fell in the range of 80 to 100%.
